According to patent US11090319B2, “Therapeutic uses of pharmaceutical compositions comprising cyclic boronic acid ester derivatives” (Melinta Subsidiary Corp., priority 2010, dated 2021):

How the values were obtained:
Test in all cases: Ceftazidime MIC with fixed concentration of BLI
Format in all cases: cell-based
[1] = test system: CF1000 Citrobacter freundii Hyper AmpC expression; settings: derivative at 10 μg/mL
Method: (§1) Next, ceftazidime potentiation activity of several cyclic boronic acid ester derivatives was tested using a larger panel of strains expressing β-lactamase hydrolyzing enzymes. Ceftazidime MICs were determined alone and in the presence of fixed concentrations of various cyclic boronic acid ester derivatives.

[2] = test system: ec308 Escherichia coli SHV-5; settings: derivative at 10 μg/mL; ec308 SHV-5
Method: as §1

[3] = test system: ec302 Escherichia coli TEM-10; settings: derivative at 10 μg/mL; ec302 TEM-10
Method: as §1

[4] = test system: EC1008 Escherichia coli CTX-M3; settings: derivative at 10 μg/mL
Method: as §1

[5] = test system: KP1007 Klebsiella pneumoniae OXA-10; settings: derivative at 10 μg/mL; KP1007 OXA-10
Method: as §1

[6] = test system: ec310 Escherichia coli ACT-1; settings: derivative at 10 μg/mL; ec310 ACT-1
Method: as §1

[7] = test system: EC1014 Escherichia coli DHA-1; settings: derivative at 10 μg/mL; EC1014 DHA-1
Method: as §1

[8] = test system: KP1010 Klebsiella pneumoniae SHV-12; settings: derivative at 10 μg/mL; KP1010 SHV-12
Method: as §1

[9] = test system: KX1000 Klebsiella oxytoca OXA-2; settings: derivative at 10 μg/mL; KX1000 OXA-2
Method: as §1

[10] = test system: ECL1002 Enterobacter cloacae Hyper AmpC expression; settings: derivative at 10 μg/mL
Method: as §1

[11] = test system: AB1054 Acinetobacter baumannii OXA-23; settings: derivative at 10 μg/mL; AB1054 OXA-23
Method: as §1

[12] = test system: KP1004 Klebsiella pneumoniae KPC-2; settings: derivative at 10 μg/mL; KP1004 KPC-2
Method: as §1

[13] = test system: KP1008 Klebsiella pneumoniae KPC-2; settings: derivative at 10 μg/mL; KP1008 KPC-2
Method: as §1

[14] = test system: KP1012 Klebsiella pneumoniae SHV-18; settings: derivative at 10 μg/mL; KP1012 SHV-18
Method: as §1

[15] = test system: KP1009 Klebsiella pneumoniae CTX-M-15; settings: derivative at 10 μg/mL; KP1009 CTX-M-15
Method: as §1

[16] = test system: EC1009 Escherichia coli TEM-10; settings: derivative at 10 μg/mL; EC1009 TEM-10
Method: as §1

[17] = test system: ec300 Escherichia coli TEM-3; settings: derivative at 10 μg/mL; ec300 TEM-3
Method: as §1

[18] = test system: KP1005 Klebsiella pneumoniae CTX-M-14; settings: derivative at 10 μg/mL; KP1005 CTX-M-14
Method: as §1

[19] = test system: EC1012 Escherichia coli TEM-12; settings: derivative at 10 μg/mL; EC1012 TEM-12
Method: as §1

[20] = test system: pa1063 Pseudomonas aeruginosa GES-1; settings: derivative at 10 μg/mL; pa1063 GES-1
Method: as §1

[21] = test system: EC1006 Escherichia coli FOX-5; settings: derivative at 10 μg/mL; EC1006 FOX-5
Method: as §1

[22] = test system: ec306 Escherichia coli SHV-2; settings: derivative at 10 μg/mL; ec306 SHV-2
Method: as §1

[23] = test system: ec301 Escherichia coli TEM-6; settings: derivative at 10 μg/mL; ec301 TEM-6
Method: as §1

[24] = test system: ec303 Escherichia coli TEM-12; settings: derivative at 10 μg/mL; ec303 TEM-12
Method: as §1

[25] = test system: PAM2035 Pseudomonas aeruginosa ampC mexA:tet; settings: derivative at 10 μg/mL
Method: as §1

[26] = test system: EC1011 Escherichia coli TEM-26; settings: derivative at 10 μg/mL; EC1011 TEM-26
Method: as §1

[27] = test system: EC1004 Escherichia coli CMY-2; settings: derivative at 10 μg/mL; EC1004 CMY-2
Method: as §1

[28] = test system: AB1057 Acinetobacter baumannii OXA-58; settings: derivative at 10 μg/mL; AB1057 OXA-58
Method: as §1

[29] = test system: ec309 Escherichia coli MIR-1; settings: derivative at 10 μg/mL; ec309 MIR-1
Method: as §1

[30] = test system: EC1010 Escherichia coli CMY-6; settings: derivative at 10 μg/mL; EC1010 CMY-6
Method: as §1

[31] = test system: PAM2005 Pseudomonas aeruginosa ampC; settings: derivative at 10 μg/mL
Method: as §1

| Structure (SMILES) | Ceftazidime MIC with cyclic boronic acid ester derivative [1] | Ceftazidime MIC with cyclic boronic acid ester derivative [2] | Ceftazidime MIC with cyclic boronic acid ester derivative [3] | Ceftazidime MIC with cyclic boronic acid ester derivative [4] | Ceftazidime MIC with cyclic boronic acid ester derivative [5] | Ceftazidime MIC with cyclic boronic acid ester derivative [6] | Ceftazidime MIC with cyclic boronic acid ester derivative [7] | Ceftazidime MIC with cyclic boronic acid ester derivative [8] | Ceftazidime MIC with cyclic boronic acid ester derivative [9] | Ceftazidime MIC with cyclic boronic acid ester derivative [10] | Ceftazidime MIC with cyclic boronic acid ester derivative [11] | Ceftazidime MIC with cyclic boronic acid ester derivative [12] | Ceftazidime MIC with cyclic boronic acid ester derivative [13] | Ceftazidime MIC with cyclic boronic acid ester derivative [14] | Ceftazidime MIC with cyclic boronic acid ester derivative [15] | Ceftazidime MIC with cyclic boronic acid ester derivative [16] | Ceftazidime MIC with cyclic boronic acid ester derivative [17] | Ceftazidime MIC with cyclic boronic acid ester derivative [18] | Ceftazidime MIC with cyclic boronic acid ester derivative [19] | Ceftazidime MIC with cyclic boronic acid ester derivative [20] | also measured |
| --- | --- | --- | --- | --- | --- | --- | --- | --- | --- | --- | --- | --- | --- | --- | --- | --- | --- | --- | --- | --- | --- |
| O=C(O)C[C@@H]1CC[C@H](NC(=O)Cc2ccccc2)B(O)O1 [Compound 6, 2-((3R,6S)-2-hydroxy-3-(2-phenylacetamido)-1,2-oxaborinan-6-yl)acetic acid] | Y (MIC of greater than 1 μg/mL to 8 μg/mL) | Z (MIC of greater than 8 μg/mL) | Z (MIC of greater than 8 μg/mL) | Y (MIC of greater than 1 μg/mL to 8 μg/mL) | Y (MIC of greater than 1 μg/mL to 8 μg/mL) | X (MIC of 1 μg/mL or less) | X (MIC of 1 μg/mL or less) | Y (MIC of greater than 1 μg/mL to 8 μg/mL) | Y (MIC of greater than 1 μg/mL to 8 μg/mL) | Y (MIC of greater than 1 μg/mL to 8 μg/mL) | Z (MIC of greater than 8 μg/mL) | Y (MIC of greater than 1 μg/mL to 8 μg/mL) | X (MIC of 1 μg/mL or less) | Y (MIC of greater than 1 μg/mL to 8 μg/mL) | Z (MIC of greater than 8 μg/mL) | Z (MIC of greater than 8 μg/mL) | Z (MIC of greater than 8 μg/mL) | Z (MIC of greater than 8 μg/mL) | Y (MIC of greater than 1 μg/mL to 8 μg/mL) | Z (MIC of greater than 8 μg/mL) | Ceftazidime MIC with cyclic boronic acid ester derivative [21]: Y (MIC of greater than 1 μg/mL to 8 μg/mL); Ceftazidime MIC with cyclic boronic acid ester derivative [22]: Z (MIC of greater than 8 μg/mL); Ceftazidime MIC with cyclic boronic acid ester derivative [23]: Z (MIC of greater than 8 μg/mL); Ceftazidime MIC with cyclic boronic acid ester derivative [24]: Y (MIC of greater than 1 μg/mL to 8 μg/mL); Ceftazidime MIC with cyclic boronic acid ester derivative [25]: Y (MIC of greater than 1 μg/mL to 8 μg/mL); Ceftazidime MIC with cyclic boronic acid ester derivative [26]: Z (MIC of greater than 8 μg/mL); Ceftazidime MIC with cyclic boronic acid ester derivative [27]: Y (MIC of greater than 1 μg/mL to 8 μg/mL); Ceftazidime MIC with cyclic boronic acid ester derivative [28]: Z (MIC of greater than 8 μg/mL); Ceftazidime MIC with cyclic boronic acid ester derivative [29]: X (MIC of 1 μg/mL or less); Ceftazidime MIC with cyclic boronic acid ester derivative [30]: Y (MIC of greater than 1 μg/mL to 8 μg/mL); Ceftazidime MIC with cyclic boronic acid ester derivative [31]: Z (MIC of greater than 8 μg/mL) |
| Cl.N[C@H]1CCC(CC(=O)O)OB1O (stereo partly drawn) [Compound 7, 2-((3R)-3-amino-2-hydroxy-1,2-oxaborinan-6-yl)acetic acid hydrochloride] | Z (MIC of greater than 8 μg/mL) | Z (MIC of greater than 8 μg/mL) | Z (MIC of greater than 8 μg/mL) | Z (MIC of greater than 8 μg/mL) | Z (MIC of greater than 8 μg/mL) | Z (MIC of greater than 8 μg/mL) | Z (MIC of greater than 8 μg/mL) | Z (MIC of greater than 8 μg/mL) | Y (MIC of greater than 1 μg/mL to 8 μg/mL) | Z (MIC of greater than 8 μg/mL) | Z (MIC of greater than 8 μg/mL) | Z (MIC of greater than 8 μg/mL) | Z (MIC of greater than 8 μg/mL) | Z (MIC of greater than 8 μg/mL) | Z (MIC of greater than 8 μg/mL) | Z (MIC of greater than 8 μg/mL) | Z (MIC of greater than 8 μg/mL) | Z (MIC of greater than 8 μg/mL) | Z (MIC of greater than 8 μg/mL) | Z (MIC of greater than 8 μg/mL) | Ceftazidime MIC with cyclic boronic acid ester derivative [21]: Z (MIC of greater than 8 μg/mL); Ceftazidime MIC with cyclic boronic acid ester derivative [22]: Z (MIC of greater than 8 μg/mL); Ceftazidime MIC with cyclic boronic acid ester derivative [23]: Z (MIC of greater than 8 μg/mL); Ceftazidime MIC with cyclic boronic acid ester derivative [24]: Z (MIC of greater than 8 μg/mL); Ceftazidime MIC with cyclic boronic acid ester derivative [25]: Z (MIC of greater than 8 μg/mL); Ceftazidime MIC with cyclic boronic acid ester derivative [26]: Z (MIC of greater than 8 μg/mL); Ceftazidime MIC with cyclic boronic acid ester derivative [27]: Z (MIC of greater than 8 μg/mL); Ceftazidime MIC with cyclic boronic acid ester derivative [28]: Z (MIC of greater than 8 μg/mL); Ceftazidime MIC with cyclic boronic acid ester derivative [29]: Z (MIC of greater than 8 μg/mL); Ceftazidime MIC with cyclic boronic acid ester derivative [30]: Z (MIC of greater than 8 μg/mL); Ceftazidime MIC with cyclic boronic acid ester derivative [31]: Z (MIC of greater than 8 μg/mL) |
